From paper PMC11940214, “The Antimicrobial Peptide D-CONGA-Q7 Eradicates Drug-Resistant E. coli by Disrupting Bacterial Cell Membranes” (Biology, 2025)
Converted amounts (≈) assume the structure as drawn. Where a SMILES comes first, the peptide text is derived from it. [ ]: non-standard residue; d: D form.

Legend:
[1] = system: E. coli strain LN175, K88, J27ab-2; assay: Thermal and acid-base stability, read out as change in MIC; assay type: physicochemical, Escherichia coli; conditions: 1.024 mg/mL solution, then adjusted back
Description: For thermal stability, the D-CONGA-Q7 was prepared as a 1.024 mg/mL solution and heated in a water bath at room temperature, 60, 65, 70, 75, 80, 90 and 100 °C for 1 h, and autoclaved at 121 °C for 15 min and then cooled to room temperature, respectively. Acid–base stability, 1.024 mg/mL of D-CONGA-Q7 solution was used to adjust its pH to 2–12 using HCl and NaOH, and the pH of each tube was adjusted back to the initial tube pH after 1 h. The adjustment of solution pH = 3.89 (pH = 3.89 is the pH of D-CONGA-Q7 itself when dissolved) included the above use of the untreated samples as a control.
The antimicrobial activity of D-CONGA-Q7 was evaluated by assessing changes in its MIC against strain LN175, K88, J27ab-2.

erythrocyte = conditions: cited from earlier work
Excerpt: D-CONGA was originally screened from a library of 28,000 peptides using high-throughput synthesis principles and host cell compatibility. […] This study explored the antimicrobial mechanis ...

in vitro = assay type: cell-based, porcine; conditions: pig
Description: Porcine small intestinal epithelial cells (IPEC-J2) were cultured in DMEM-F12 medium supplemented with 10% fetal bovine serum (TransGen Biotech, Beijing, China) and 1% penicillin–streptomycin (Beyotime Biotechnology, Shanghai, China). The cells were maintained in a humidified incubator at 37 °C with 5% CO2. Cells were passaged using 0.25% trypsin solution containing ethylenediaminetetraacetic acid (EDTA). Cells were seeded into 96-well plates at a density of 1 × 10⁴ cells per well. After 48 h, they were treated with varying concentrations of D-CONGA-Q7 and incubated with CCK-8 (Beyotime Biotechnology, Shanghai, China) for 1 h. The assay was measured using a […].

[2] = system: multidrug-resistant E. coli strains; assay type: cell-based, Escherichia coli
Description: (§1) The bacterial strains used in this study, including LN175, J27ab-2, K88, AD21R, and 21f54mr-1, were E. coli obtained from the Hunan Veterinary Engineering Research Center (Changsha, Hunan Province). Except for K88, all the strains were multidrug-resistant and carried multiple resistance genes, while K88 was a diarrhea-causing strain containing the ETEC gene.
(§2) The bacterial concentration was adjusted to 1 × 10^5 CFU/mL using a turbidimeter. Then, 100 μL of Mueller–Hinton Broth (MHB) broth was added to wells 1–11 of a 96-well plate, while 200 μL was added to well 12. Then, 100 μL of the drug was added to wells 1–11, which was followed by 100 μL of the bacterial suspension. Results were observed after incubation at 37 °C for 16–24 h.

[3] = system: E. coli LN175 (mcr-1,NDM); assay type: cell-based, Escherichia coli
Description: as §1, §2

With `CC(C)C[C@@H](NC(=O)[C@@H](CCC(N)=O)NC(=O)[C@@H](CCCNC(=N)N)NC(=O)[C@@H](CCCNC(=N)N)NC(=O)[C@@H](C)NC(=O)[C@@H](Cc1c[nH]c2ccccc12)NC(=O)[C@@H](CCCNC(=N)N)NC(=O)[C@H](N)CCCNC(=N)N)C(=O)N[C@H](C)C(=O)N[C@H](Cc1ccccc1)C(=O)N[C@H](C)C(=O)N[C@H](Cc1ccccc1)C(=O)N[C@H](CCCNC(=N)N)C(=O)N[C@H](CCCNC(=N)N)C(N)=O` [D-CONGA-Q7] (H-[dR][dR][dW][dA][dR][dR][dQ][dL][dA][dF][dA][dF][dR][dR]-NH2) as the compound, how does the “antimicrobial activity after exposure to pH 12 (acid-base stability)” value ([1]; pH 12, 1 h, read-out MIC) read?
Its value is “reduction in activity”.

And the “antimicrobial activity after exposure to pH 2 to 11 (acid-base stability)” value ([1]; pH between 2 and 11 with HCl/NaOH, 1 h, read-out MIC against LN175, K88, J27ab-2)?
The value was “retained its antimicrobial activity”.

And the erythrocyte hemolytic activity (erythrocyte)?
Its erythrocyte hemolytic activity is “minimal erythrocyte hemolytic activity”.

And the IC50 (in vitro)?
Its IC50 is 188 µg/mL (≈ 99.8 µM).

And the “MIC values for all strains tested” value [2]?
Its value is “less than or equal to 4 μg/mL”.

What about the MIC [3] of the same compound?
Its MIC is 4 µg/mL (≈ 2.12 µM).
